The target in data set [1] is T1, σ1R (Cavia porcellus, UniProt Q60492).
T1 construct: from tissue; host or cells: guinea pig brain membrane homogenates
Nature of the data set: σ1R radioligand binding assay ([3H]-pentazocine, guinea pig brain membrane homogenates). Particulars: for Ki: mean ± SD of three independent experiments, [3H]-pentazocine, free base; for Ki σ2/Ki σ1: σ1R selectivity ratio over σ2R.
Method: The binding assay for σ1R was carried out using guinea pig brain membrane homogenates according to DeHaven-Hudkins et al.,[58] while the binding assay for σ2R was performed following experimental procedures described by Mach et al.[59] Inhibitory constants (Ki) were calculated using the radioligand binding analysis software EBDA/Ligand (Elsevier/Biosoft).

For data set [2], the target named is σ1R. On the set-up: method as in PMID 22784008, PMID 31258480, PMID 31981633, PMID 32691179, PMID 28644012. Particulars: cited from earlier work; for Ki: Figure 1, read-out: Ki σ1.
Another data set addresses T2, σ2R (Rattus norvegicus, UniProt Q5U3Y7).
T2 sequence (Q5U3Y7 1-176): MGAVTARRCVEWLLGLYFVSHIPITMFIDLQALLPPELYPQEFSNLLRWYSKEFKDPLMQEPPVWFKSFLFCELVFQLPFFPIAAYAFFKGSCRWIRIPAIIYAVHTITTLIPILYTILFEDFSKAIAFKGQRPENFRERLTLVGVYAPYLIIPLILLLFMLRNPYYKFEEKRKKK
On the set-up: method as in PMID 22784008, PMID 31258480, PMID 31981633, PMID 32691179, PMID 28644012. Particulars: cited from earlier work.

Data set [3] concerns CCI-induced mechanical allodynia. Nature of the data set: Chronic constriction injury (CCI) model, von Frey mechanical allodynia. It counts as in vivo, CD-1 mice. Particulars: for anti-allodynic effect in the CCI model (result in words): von Frey, 20–80 min post-injection, 15 10–60 mg/kg i.p. (oxalate salt). How it is done: CCI was introduced in CD-1 mice that were first anesthetized with isoflurane as described by Hoot et al.[66] and Cirino et al.[35] to induce mechanical allodynia.[51]−[54] After anesthetization, mice were subjected to surgery where an incision was made along the surface of the biceps femoris of the right hind paw.[66] Blunt forceps were used to split the muscle and expose the right sciatic nerve. The tips of two 0.1–10 μL pipet tips facing opposite directions were passed under the sciatic nerve to allow for easy passing of two sutures under the nerve, 1 mm apart. The sutures were tied loosely around the nerve and knotted twice, and the skin was closed with 29 mm skin staples. Mice were given a 7 day recovery period prior to the baseline von Frey testing as described below to confirm the induction of hyperalgesia in each mouse. […] Allodynic mice were then administered (i.p.) either vehicle (saline), morphine (10 mg/kg, i.p.), gabapentin (50 mg/kg, i.p.), CM304 (45 mg/kg, i.p.), or compound 15 (10–60 mg/kg, i.p.). Note that gabapentin was tested 1 h postinjection to circumvent known sedative effects that may confound the assay.[67] Each mouse was then tested for the modulation of tactile allodynia every 20 min up until 80 min post-injection with the use of von Frey testing. The assessment of mechanical allodynia was performed to measure compound 15’s efficacy against CCI-induced allodynia as described.[51]−[54] Mice were habituated on a mesh platform for 1 h prior to testing. Filaments of increasing pressure (0.4–6 g) were applied and then held to the plantar surface of both the injured and uninjured hind paws of mice for approximately 1–2 s prior to drug administration to record baseline responses to a peripheral stimulus. The filaments were applied with increasing strengths, and threshold responses were defined as two hind paw responses per trial of the same filament strength. Control or test compounds were administered (i.p.), and paw-withdrawal thresholds were again recorded from 20 to 80 min postinjection. Each hind paw was tested in a counterbalanced manner. Each time was measured in triplicate and then averaged. Responsiveness was a clear withdrawal, shaking, or licking of the paw. To account for variability between mice, data are presented as the percent of baseline paw withdrawal thresholds following filament stimulation of the ipsilateral hind paw. The following equation was used: % anti-allodynia = 100 × ([mean paw withdrawal force {g} in control group – paw withdrawal force {g} of each mouse]/mean paw withdrawal force [g] in control group).

Data set [4] deals with T1, σ1R. On the set-up: method as in PMID 27262426. Particulars: lead compound 8, selectivity ratio; cited from earlier work.
Data set [5] relates to formalin-induced inflammatory nociception. In words: Formalin-induced inflammation assay (time spent licking the paw). It counts as in vivo. Particulars: C57BL/6J mice, 3–30 mg/kg i.p.; 15 as oxalate salt. How it is done:
After a 10 min pretreatment (i.p.) of vehicle control (saline), CM304 (3–30 mg/kg, i.p.), or compound 15 (3–30 mg/kg, i.p.), an intraplantar (i.pl.) injection of 5% formalin ([…] in 15 μL) was administered into the right hind paw. Time spent licking the right hind paw was recorded in 5 min intervals for 60 min following injection. The last 55 min of assessment was used to determine the inflammatory response stimulus. Data were analyzed as the summed duration of licking hind paw.
All data are presented as mean ± SEM. Significance is indicated as *p < 0.05 and was analyzed using two-way ANOVA with Tukey’s post hoc analysis. Statistical analysis was performed with the use of GraphPad Prism 9.0 software. […]. The rotarod data are expressed as the % change from baseline performance for each animal’s baseline response.

The values below come from paper PMC8291485, “Development of New Benzylpiperazine Derivatives as σ1 Receptor Ligands with in Vivo Antinociceptive and Anti-Allodynic Effects” (ACS Chemical Neuroscience, 2021).

Molecules are shown by their SMILES. Entries after “also recorded” stand apart in the source; their conditions may differ. Where two headings read alike, the source gives them in different places.

T1 sequence (Q60492 whole entry): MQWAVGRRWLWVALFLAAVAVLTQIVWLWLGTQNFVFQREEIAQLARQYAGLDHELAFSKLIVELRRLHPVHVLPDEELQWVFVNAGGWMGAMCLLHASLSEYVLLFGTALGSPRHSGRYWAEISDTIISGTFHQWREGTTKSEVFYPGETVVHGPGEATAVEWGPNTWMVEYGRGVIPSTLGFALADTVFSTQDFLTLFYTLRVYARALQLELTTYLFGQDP

For `COc1ccc(CN2CCN(C(=O)CCc3ccccc3)CC2)cc1` [Compound 21, 1-{4-[(4-Methoxyphenyl)methyl]piperazin-1-yl}-3-phenylpropan-1-one], at σ1R [1], the affinity corresponds to a Ki of 0.0088 ± 0.00022 µM and the “Ki σ2/Ki σ1” value amounted to 370.

As to `CC(CCCn1c(=O)sc2cc(F)ccc21)N1CCN(C2CCCCC2)CC1` (stereo not drawn) [Compound 5], the Ki at σ1R [2] is 0.0024 µM.

For the molecule `FCCC1Cc2ccccc2C2(CCC(N3CCN(C4CCCCC4)CC3)CC2)O1` (stereo not drawn) [cis-7], the inhibitory constant (Ki) at σ1R [2] is 0.019 µM.

Take `O=C(CCCCc1ccccc1)N1CCN(Cc2ccc(CO)cc2)CC1` [Compound 24, 1-(4-{[4-(Hydroxymethyl)phenyl]methyl}piperazin-1-yl)-5-phenylpentan-1-one]: on σ1R [1], affinity was put at a Ki of 0.0061 ± 0.0001 µM and the “Ki σ2/Ki σ1” value is recorded as 423.

For the molecule `O=c1sc2cc(CCCF)ccc2n1CCN1CCCCCC1` [Compound 1], the inhibition constant (Ki) on σ1R [2] was 0.00096 µM; at σ2R (Figure 1, read-out: Ki σ2), 0.467 µM. In addition, the “Ki σ2/Ki σ1” value at σ1R [2] (printed in Figure 1, σ1R selectivity) is given as over 486. Besides, the “time of peak anti-allodynic effect” value in data set [3] (CD-1 mice, CM304 45 mg/kg i.p., began to diminish at 60 min) was 40 min. Also, in data set [3] (CD-1 mice, CM304 45 mg/kg i.p.), the “anti-allodynic effect in the CCI model (result in words)” value is “anti-allodynic effects that are comparable to those of gabapentin”.

With `COc1ccc(CN2CCN(C(=O)CCCCC3CCSS3)CC2)cc1` (stereo not drawn) [Compound 8], the “Ki σ2/Ki σ1” value at σ1R [4] is given as 432.

For `COc1ccc(CN2CCN(C(=O)CCCc3ccccc3)CC2)cc1` [Compound 14, 1-{4-[(4-Methoxyphenyl)methyl]piperazin-1-yl}-4-phenylbutan-1-one], the melting point is 91 to 93.9 °C. For the same molecule, on σ1R [1], the inhibitory constant (Ki) is 0.0133 ± 0.00022 µM and the “Ki σ2/Ki σ1” value is listed as 124.

For the molecule `O=c1oc2ccc(Cl)cc2n1CCCCN1CCCCCC1` [Compound 6], at σ1R [2], the inhibition constant (Ki) was 0.0023 µM.

Regarding `COc1ccc(CN2CCN(C(=O)CCCCc3ccccc3)CC2)cc1` [Compound 13, 1-{4-[(4-Methoxyphenyl)methyl]piperazin-1-yl}-5-phenylpentan-1-one], at σ1R [1], the affinity, expressed as Ki, was 0.0181 ± 0.00044 µM and the “Ki σ2/Ki σ1” value is 64.

As to `FCCC1Cc2ccccc2C2(CCC(N3CCN(C4CCCCC4)CC3)CC2)O1` (stereo not drawn) [trans-7], the Ki on σ1R [2] was 0.012 µM.

In the case of `COc1ccc(CN2CCN(C(=O)CCC3CCCCC3)CC2)cc1` [Compound 15, 3-Cyclohexyl-1-{4-[(4-methoxyphenyl)methyl]piperazin-1-yl}propan-1-one], the “antinociception in the formalin assay (result in words)” value in data set [5] was “dose-dependent (3–60 mg/kg, i.p.) antinociception and anti-allodynic effects; also recorded: significant dose-dependent antinociception; also recorded: dose-dependent increase in % antinociception; also recorded: significant antinociceptive and anti-allodynic effects”. Moreover, at σ1R [1], the affinity, expressed as Ki, was 0.0016 ± 5e-05 µM and the “Ki σ2/Ki σ1” value is reported as 886. In data set [3] (60 mg/kg, i.p., at 20, 60, and 80 min post-injection, p < 0.05), the “paw withdrawal thresholds in the CCI model (result in words)” value is on record as “significant increases in withdrawal thresholds”. The “anti-allodynic effect in the CCI model (result in words)” value in data set [3] (CD-1 mice, CM304 45 mg/kg i.p.) was “dose-dependent (3–60 mg/kg, i.p.) antinociception and anti-allodynic effects; also recorded: significant dose-dependent anti-allodynic effects; also recorded: significant antinociceptive and anti-allodynic effects”.

`COc1ccc(CN2CCN(C(=O)Cc3ccccc3)CC2)cc1` [Compound 22, 1-{4-[(4-Methoxyphenyl)methyl]piperazin-1-yl}-2-phenylethan-1-one] gave a melting point of 97.6 to 99.8 °C. For the same molecule, on σ1R [1], the Ki stood at 0.145 ± 0.0005 µM and the “Ki σ2/Ki σ1” value is on record as 160.

On to `COc1ccc(CN2CCN(C(=O)CCCOc3ccccc3)CC2)cc1` [Compound 20, 1-{4-[(4-Methoxyphenyl)methyl]piperazin-1-yl}-4-phenoxybutan-1-one], for which the melting point lay within 88.3 to 91.3 °C. Besides, on σ1R [1], affinity was put at a Ki of 0.102 ± 0.0006 µM and the “Ki σ2/Ki σ1” value amounted to 43.

Molecule `COc1ccc(CN2CCN(C(=O)/C=C/c3ccccc3)CC2)cc1` [Compound 16, (2E)-1-{4-[(4-Methoxyphenyl)methyl]piperazin-1-yl}-3-phenylprop-2-en-1-one] gave a melting point of 120.8 to 122.6 °C. Further, at σ1R [1], the inhibition constant (Ki) was found to be 0.0113 ± 0.00026 µM and the “Ki σ2/Ki σ1” value worked out at 351.

For the molecule `COc1cc2c(cc1OC)CN(CCCCn1c(=O)n(C)c3ccccc31)CC2` [Compound 3, 1-(4-(6,7-dimethoxy-3,4-dihydroisoquinolin-2(1H)-yl)butyl)-3-methyl-1H-benzo[d]imidazol-2(3H)-one], the Ki at σ1R [2] was 0.56 µM. Also, the “Ki σ1/Ki σ2” value on σ2R (printed in Figure 1, σ2R selectivity) was > 1,302.

Regarding `OCCCN1CCCC2CC1c1cc(-c3ccc(C(F)(F)F)cc3)ccc12` (stereo not drawn) [Compound 4], at σ1R [2], the Ki was over 1 µM.
